We go through 11 compounds from patent publication US7582655B2, “Antineoplastic compounds” (University of Saskatchewan, priority 2005, dated 2009).

Like-named read-outs stand apart in the source and are kept apart here.

One data set concerns K 562. Briefly: Human tumour cell line panel, leukemic K 562. Particulars: 48 h; read-out: Leukemic cells, IC50(μM) K 562. The format is cell-based. The method, then: (§1) In addition, both 5-fluorouracil and melphalan were evaluated towards 57 cell lines. […] MG MID is the average of the potencies of the compound to approximately 50 neoplastic cell lines.
The test system of another data set is KM 12. Briefly: Human tumour cell line panel, colon cancer KM 12. The format is cell-based. Conditions: read-out: Colon cancer cells, IC50(μM) KM 12. On the procedure:
as §1

Data set [1] relates to human squamous cell carcinomas HSC-4. Kind of data set: Cytotoxicity CC50, MTT assay, HSC-4. On the procedure:
(§2) In addition, the compounds were evaluated against human squamous cell carcinomas (HSC-2 and HSC-4) and human promyelocytic leukemia neoplasms (HL-60) and compared with normal cells, i.e. human gingival fibroblasts (HGF), human pulp cells (HPC) and human periodontal ligament fibroblasts (HPLF).
(§3) MTT stands for 3-(4,5-dimethylthiazol-2-yl)-2,5-diphenyltetrazolium bromide). The cells were incubated with varying concentrations of the compounds along with untreated cells for 24 h and the absorbance at 540 nm measured. In the case of the HL-60 assay, the trypan blue exclusion method was followed and cell viability was determined using a haemocytometer. The CC50 values were obtained from dose-response curves (Sakagami, H.; Satoh, K.; Ohata, H.; Takahashi, H.; Yoshida, H.; Iida, M.; Kuribayashi, N.; Sakagami, T.; Momose, K.; Takeda, M. Anticancer Res. 1996, 16, 2635-2644). The general methods used in culturing the cells employed in these cytotoxicity experiments have been described previously (Kawase, M.; Sakagami, H.; Motohashi, N.; Hauer, H.; Chatterjee, S. S.; Spengler, G.; Vigyikanne, A. V.; Molnár, A.; Molnár, J. In Vivo 2005, 19, 705-712; and Takeuchi, R.; Hoshijima, H.; Onuki, N.; Nagasaka, H.; Chowdhury, S. A.; Kawase, M.; Sakagami, H. Anticancer Res. 2005, 25, 4037-4042). In brief, the malignant cells were obtained from Professor Nagumo, Showa University, Japan. The HGF, HPC and HPLF cells were prepared from human periodontal tissue after obtaining informed consent according to the guidelines of Meikai University Ethics Committee, Japan (No. 0206). Since normal cells have a short lifespan, cells at the 3-7 population doubling time were used. With the exception of the HL-60 neoplasm, the cells were cultured in DMEM containing heat-inactivated FBS (10%) at 37° C. in a humidified carbon dioxide atmosphere and subcultured by trypsinization. The HL-60 cells were cultured in a similar fashion except that RPMI 1640 media was employed.

Data set [2] has as its system human periodontal ligament fibroblasts (HPLF). Kind of data set: Cytotoxicity CC50, MTT assay, normal HPLF cells. The method, then:
as §2, §3

Data set [3] deals with human gingival fibroblasts (HGF). Briefly: Cytotoxicity CC50, MTT assay, normal HGF cells. On the procedure:
as §2, §3

The subject of another data set is RPMI 8226. Kind of data set: Human tumour cell line panel, leukemic RPMI 8226. Particulars: 48 h; read-out: Leukemic cells, IC50(μM) RPMI 8226. The class given is cell-based. The method, then: as §1
The next data set deals with human pulp cells (HPC). Kind of data set: Cytotoxicity CC50, MTT assay, normal HPC cells. On the procedure:
as §2, §3

Another data set concerns SW 620. Kind of data set: Human tumour cell line panel, colon cancer SW 620. Conditions: 48 h; read-out: Colon cancer cells, IC50(μM) SW 620. The class given is cell-based. The method, then:
as §1

For another data set, the system named is HCT 116. Kind of data set: Human tumour cell line panel, colon cancer HCT 116. The format is cell-based. Particulars: 48 h; read-out: Colon cancer cells, IC50(μM) HCT 116. On the procedure:
as §1

Data set [4] deals with human squamous cell carcinomas HSC-2. Kind of data set: Cytotoxicity CC50, MTT assay, HSC-2. On the procedure:
as §2, §3

For data set [5], the system named is HSC-2, HSC-4 and HL-60 malignant cells. Kind of data set: Average CC50 for malignant cells. The method, then:
as §2, §3

The test system of another data set is COLO 205. Kind of data set: Human tumour cell line panel, colon cancer COLO 205. The class given is cell-based. Conditions: 48 h; read-out: Colon cancer cells, IC50(μM) COLO 205. On the procedure:
as §1

In the next data set the test system is HCT 15. Kind of data set: Human tumour cell line panel, colon cancer HCT 15. Particulars: 48 h; read-out: Colon cancer cells, IC50(μM) HCT 15. The class given is cell-based. The method, then:
as §1

The test system of a further data set is human tumour cell lines. Briefly: Panel of human tumour cell lines, all cell lines (mean graph midpoint). Conditions: mean graph midpoint, average of 49 (38-59) human tumour cell lines, 48 h incubation; read-out: All cell lines IC50. The class given is cell-based. On the procedure:
A number of compounds of the invention were further assessed against numerous human malignant cell lines. An average of 49 cell lines from nine different neoplastic diseases, namely leukemia, melanoma, non-small cell lung, colon, central nervous system, ovarian, renal, prostate, and breast cancers were employed.
as §1

The test system of data set [6] is human promyelocytic leukemia HL-60. Kind of data set: Cytotoxicity CC50, trypan blue exclusion, HL-60. The method, then:
as §2, §3

Data set [7] concerns murine L-5178 lymphoma cells transfected with the human MDR1 gene. Briefly: MDR reversal, rhodamine 123 fluorescence activity ratio. Conditions: FAR >1 indicates MDR reversal; for FAR value 4 μg/ml: compound 4 μg/ml; for FAR value 40 μg/ml: compound 40 μg/ml. On the procedure: A solution of the test compound (2 mg/ml, 10 μl) in dimethylsulfoxide was added to aliquots of the cell suspension and incubated at room temperature for 10 minutes. […] The cells were washed twice and resuspended in PBS (pH 7.4) after which the fluorescence was measured using a Beckton Dickinson FACScan instrument. The fluorescence of the cells was measured in treated MDR cells (F1), untreated MDR cells (F2), treated parental cells (F3) […] were obtained from the following equation, viz (F1/F2)/(F3/F4).

The mark [8] stands for this setting: read-out: CC50(μM) HSC-4, 24 h, MTT, average of two determinations.
The mark [9] stands for this setting: read-out: CC50(μM) HPLF, normal cells, 24 h, MTT.
[10] abbreviates: read-out: CC50(μM) HGF, normal cells, 24 h, MTT.
Where [11] appears, read: read-out: CC50(μM) HPC, normal cells, 24 h, MTT.
Where [12] appears, read: read-out: CC50(μM) HSC-2, 24 h, MTT, average of two determinations.
Where [13] appears, read: average CC50 for HSC-2, HSC-4 and HL-60 malignant cells.
Setting [14] is: read-out: CC50(μM) HL-60, 24 h, trypan blue exclusion, average of two determinations.

In the case of “1-[4-(2-Diethylaminoethoxy)phenylcarbonyl]-3,5-bis(phenylmethylene)-4-piperidone hydrochloride hemihydrate [Compound 4a]”, the IC50 was 0.043 µM in the data set on K 562; 1.74 µM with KM 12; less than 0.01 µM in the data set on RPMI 8226; 1.35 µM in the data set with SW 620; less than 0.01 µM with HCT 116; 2.63 µM in the data set on COLO 205. The IC50 with HCT 15 was 1.17 µM; in the data set on human tumour cell lines, less than 1.38 µM. Besides, the CC50 in data set [1] (setting [8]) was 2 µM; in [2] (setting [9]), 6 µM; in data set [3] (setting [10]), 4.2 µM; with human pulp cells (HPC) (setting [11]), 12 µM; in [4] (setting [12]), 3.1 µM; in [6] (setting [14]), 0.61 µM. In data set [5] (setting [13]), the “CC50(μM) ave” value is 1.9 µM.
For “1-[4-(2-Dimethylaminoethoxy)phenylcarbonyl]-3,5-bis(4-nitrophenylmethylene)-4-piperidone hydrochloride hemihydrate [Compound 3c]”, the CC50 in [1] (setting [8]) was 0.71 µM; in [2] (setting [9]) it was 5.9 µM; in [3] (setting [10]), 7 µM; with human pulp cells (HPC) (setting [11]) it was 5.2 µM; in [4] (setting [12]), 0.93 µM; in [6] (setting [14]), 0.31 µM.
Take “1-[4-{2-(1-Piperidinyl)ethoxy}phenylcarbonyl]-3,5-bis(phenylmethylene)-4-piperidone hydrochloride hemihydrate [Compound 5a]”: the CC50 stood at 2.5 µM in data set [1] (setting [8]); 7.4 µM in data set [2] (setting [9]); 4.6 µM in data set [3] (setting [10]); 12 µM in the data set on human pulp cells (HPC) (setting [11]); 3 µM in data set [4] (setting [12]); 1.4 µM in data set [6] (setting [14]). The “CC50(μM) ave” value in data set [5] (setting [13]) was found to be 2.3 µM.
For the compound “1-[4-{2-(4-Morpholinyl)ethoxy}phenylcarbonyl]-3,5-bis(4-nitrophenylmethylene)-4-piperidone hydrochloride hemihydrate [Compound 6c]”, the CC50 in data set [1] (setting [8]) is 0.74 µM; in data set [2] (setting [9]), 9.3 µM; in [3] (setting [10]), 12 µM; in the data set with human pulp cells (HPC) (setting [11]), 8.2 µM; in data set [4] (setting [12]) it was 0.76 µM; in [6] (setting [14]) it was 0.35 µM.
On to `O=C1C(=Cc2ccc(Cl)cc2)CNCC1=Cc1ccc(Cl)cc1` [Compound 1b], for which the CC50 in [1] was 20 µM; in [2], 56 µM; in data set [3], 69 µM; in the data set on human pulp cells (HPC) it was 130 µM; in data set [4], 18 µM; in data set [6], 22 µM. Further, the “FAR value 4 μg/ml” value in data set [7] is listed as 1.25. Further, in [7], the “FAR value 40 μg/ml” value stood at 0.91. In addition, the “CC50(μM) ave” value in [5] was 20 µM.
With `Cl.Cl.O.O.O.O=C1C(=Cc2ccc([N+](=O)[O-])cc2)CN(C(=O)c2ccc(OCCN3CCCCC3)cc2)CC1=Cc1ccc([N+](=O)[O-])cc1.O=C1C(=Cc2ccc([N+](=O)[O-])cc2)CN(C(=O)c2ccc(OCCN3CCCCC3)cc2)CC1=Cc1ccc([N+](=O)[O-])cc1` [Compound 5c, 3,5-bis(4-Nitrophenylmethylene)-1-[4-{2-(1-piperidinyl)ethoxy}phenylcarbonyl]-4-piperidone hydrochloride 1.5 hydrate], the CC50 came to 0.9 µM in [1]; 4.9 µM in data set [2]; 8 µM in data set [3]; 3.9 µM with human pulp cells (HPC); 0.86 µM in [4]; 0.29 µM in data set [6]. The “FAR value 4 μg/ml” value in data set [7] was determined as 145. Moreover, in data set [7], the “FAR value 40 μg/ml” value is reported as 51.5.
Turning to `Cc1ccc(C=C2CN(C(=O)c3ccc(OCCN4CCCCC4)cc3)CC(=Cc3ccc(C)cc3)C2=O)cc1.Cc1ccc(C=C2CN(C(=O)c3ccc(OCCN4CCCCC4)cc3)CC(=Cc3ccc(C)cc3)C2=O)cc1.Cl.Cl.O` [Compound 5d], in data set [7], the “FAR value 4 μg/ml” value was 179 and the “FAR value 40 μg/ml” value is on record as 146. The “CC50(μM) ave” value in data set [5] stood at 3.1 µM.
On to `Cl.O=C1C(=Cc2ccc(Cl)cc2)CN(C(=O)c2ccc(OCCN3CCOCC3)cc2)CC1=Cc1ccc(Cl)cc1` [Compound 6b], for which, in data set [7], the “FAR value 4 μg/ml” value was 76.0 and the “FAR value 40 μg/ml” value is reported as 6.88. Moreover, the “CC50(μM) ave” value in [5] was found to be 42 µM.
Take `CC[N+](C)(CC)CCOc1ccc(C(=O)N2CC(=Cc3ccc(Cl)cc3)C(=O)C(=Cc3ccc(Cl)cc3)C2)cc1.[I-]` [Compound 7b, 3,5-bis(4-Chlorophenylmethylene)-1-[4-(2-diethylaminoethoxy)phenylcarbonyl]-4-piperidone methoiodide]: the CC50 in data set [1] was 220 µM; in data set [2] it was 9.4 µM; in [3], greater than 400 µM; with human pulp cells (HPC), greater than 400 µM; in data set [4] it was greater than 400 µM; in data set [5], no less than 228 µM. The CC50 in data set [6] amounted to 64 µM. Also, the “FAR value 4 μg/ml” value in [7] is recorded as 1.21. Moreover, the “FAR value 40 μg/ml” value in data set [7] came out at 1.85.
In the case of `CC[N+](C)(CC)CCOc1ccc(C(=O)N2CC(=Cc3ccc([N+](=O)[O-])cc3)C(=O)C(=Cc3ccc([N+](=O)[O-])cc3)C2)cc1.[I-]` [Compound 7c, 1-[4-(2-Diethylaminoethoxy)phenylcarbonyl]-3,5-bis(4-nitrophenylmethylene)-4-piperidone methoiodide], the CC50 in [1] was 61 µM; in data set [2], 13 µM; in data set [3], 93 µM; in the data set on human pulp cells (HPC), 130 µM; in data set [4], 67 µM; in [6] it was 29 µM. For the same compound, the “FAR value 4 μg/ml” value in data set [7] was found to be 1.03. Moreover, the “FAR value 40 μg/ml” value in data set [7] is 1.22. For the same compound, the “CC50(μM) ave” value in data set [5] was 52 µM.
For the compound “[4-(2-Dimethylaminoethoxy)phenylcarbonyl]-3,5-bis(phenylmethylene)-4-piperidone hydrochloride [Compound 3a]”, the CC50 stood at 2.1 µM in data set [1] (setting [8]), 8.9 µM in data set [2], 3.8 µM in data set [4] (setting [12]) and 1 µM in data set [6]. The “FAR value 4 μg/ml” value in data set [7] is 45.5. For the same compound, the “FAR value 40 μg/ml” value in data set [7] was found to be 51.6. Moreover, the “CC50(μM) ave” value in data set [5] (setting [13]) came to 2.3 µM.
